Consider three compounds from ChEMBL document CHEMBL5528051, “Chelerythrine Chloride is an Affinity-Labeling Inactivator of CYP3A4 by Modification of Cysteine239” (J Med Chem, 2024).

Each structure is given as a SMILES string.

The target of data set [1] is T1, Cytochrome P450 3A4 (Homo sapiens, UniProt P08684). The data set can be described thus: Time dependent inhibition of CYP3A4 (unknown origin) at 50 uM measured after 5 to 15 mins in presence of NADPH. The class given is ADME. The conditions noted are these: time 5-15 min.
T1 sequence (P08684 whole entry): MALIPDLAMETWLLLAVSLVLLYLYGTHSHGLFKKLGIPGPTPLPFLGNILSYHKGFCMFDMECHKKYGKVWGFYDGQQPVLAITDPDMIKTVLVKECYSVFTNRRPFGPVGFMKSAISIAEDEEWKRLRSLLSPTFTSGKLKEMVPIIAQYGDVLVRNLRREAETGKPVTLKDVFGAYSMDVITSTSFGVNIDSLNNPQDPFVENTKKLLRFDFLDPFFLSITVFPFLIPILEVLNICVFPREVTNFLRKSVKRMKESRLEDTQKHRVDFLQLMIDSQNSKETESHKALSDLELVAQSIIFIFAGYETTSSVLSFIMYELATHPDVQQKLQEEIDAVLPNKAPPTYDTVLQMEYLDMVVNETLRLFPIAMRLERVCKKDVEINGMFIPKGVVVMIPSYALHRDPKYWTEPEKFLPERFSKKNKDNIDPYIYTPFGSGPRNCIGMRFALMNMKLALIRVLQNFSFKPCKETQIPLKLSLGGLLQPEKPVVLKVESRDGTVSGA
Data set [2] is described as follows: Chemical reactivity of compound to NAC in PBS at pH 7.4 by UV spectrometric assay. It counts as physicochemical. The conditions noted are these: buffer.
A short description of data set [3]: Chemical reactivity of compound to NAL in PBS at pH 7.4 by UV spectrometric assay. The class given is physicochemical. The conditions noted are these: buffer.
Data set [4] is described as follows: Chemical reactivity of compound to serine in PBS at pH 7.4 by UV spectrometric assay. It counts as physicochemical. The conditions noted are these: buffer.
The target of data set [5] is T1, Cytochrome P450 3A4. The data set can be described thus: Time dependent inhibition of CYP3A4 (unknown origin) at 50 uM measured after 5 to 15 mins. The conditions noted are these: time 5-15 min. The class given is ADME.
Another data set concerns the target CYP3A5 (Homo sapiens, UniProt P20815). The data set can be described thus: Inhibition of human CYP3A5 assessed as remaining activity at 50 uM using testosterone as substrate preincubated for 3 mins followed by substrate addition and measured upto 15 mins by LC-MS/MS analysis. It counts as ADME. The conditions noted are these: probe testosterone, time < 18 min, read-out: Activity.

Data set [6] deals with T1, Cytochrome P450 3A4. The data set can be described thus: Inhibition of wild type CYP3A4 (unknown origin) expressed in CHO cells using midazolam as substrate incubated for 6 hrs by LC-MS/MS analysis. It counts as ADME, cell-based.
In data set [7] the target is T1, Cytochrome P450 3A4. The data set can be described thus: Inhibition of CYP3A4 (unknown origin) at 50 uM preincubated for 3 mins followed by NADPH addition and measured after 5 to 15 mins by LC-MS/MS analysis. It counts as ADME. The conditions noted are these: time 8-18 min.
Data set [8] deals with T2, CYP3A4 (Homo sapiens, UniProt P08684). The data set can be described thus: Inhibition of CYP3A4 (unknown origin) assessed as remaining activity at 50 uM incubated for 15 mins in presence of 20 mM NAC. It counts as ADME. The conditions noted are these: read-out: Activity.
T2 sequence (P08684 whole entry): as above
In the next data set the target is CYP2E1 (Homo sapiens, UniProt P05181). The data set can be described thus: Inhibition of human CYP2E1 assessed as remaining activity at 50 uM using 4-nitrophenol as substrate preincubated for 3 mins followed by substrate addition and measured upto 15 mins by LC-MS/MS analysis. The class given is ADME. The conditions noted are these: probe 4-nitrophenol, time < 18 min, read-out: Activity.
Chain of CYP2E1 (P05181 whole entry): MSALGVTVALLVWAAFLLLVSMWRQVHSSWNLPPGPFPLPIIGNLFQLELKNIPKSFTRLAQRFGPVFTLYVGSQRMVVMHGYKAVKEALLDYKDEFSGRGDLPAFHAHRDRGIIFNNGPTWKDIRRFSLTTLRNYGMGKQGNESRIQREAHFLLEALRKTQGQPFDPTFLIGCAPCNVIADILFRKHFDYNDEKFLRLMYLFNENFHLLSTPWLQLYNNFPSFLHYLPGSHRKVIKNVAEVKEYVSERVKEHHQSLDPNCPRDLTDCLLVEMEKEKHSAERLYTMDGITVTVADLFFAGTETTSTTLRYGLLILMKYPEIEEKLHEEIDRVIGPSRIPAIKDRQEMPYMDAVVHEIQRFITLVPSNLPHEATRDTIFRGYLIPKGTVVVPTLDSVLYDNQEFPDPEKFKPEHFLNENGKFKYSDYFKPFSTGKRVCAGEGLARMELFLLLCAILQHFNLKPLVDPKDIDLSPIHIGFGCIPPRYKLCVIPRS

A further data set concerns the target T3, CYP2B6 (Homo sapiens, UniProt P20813).
T3 sequence (P20813 whole entry): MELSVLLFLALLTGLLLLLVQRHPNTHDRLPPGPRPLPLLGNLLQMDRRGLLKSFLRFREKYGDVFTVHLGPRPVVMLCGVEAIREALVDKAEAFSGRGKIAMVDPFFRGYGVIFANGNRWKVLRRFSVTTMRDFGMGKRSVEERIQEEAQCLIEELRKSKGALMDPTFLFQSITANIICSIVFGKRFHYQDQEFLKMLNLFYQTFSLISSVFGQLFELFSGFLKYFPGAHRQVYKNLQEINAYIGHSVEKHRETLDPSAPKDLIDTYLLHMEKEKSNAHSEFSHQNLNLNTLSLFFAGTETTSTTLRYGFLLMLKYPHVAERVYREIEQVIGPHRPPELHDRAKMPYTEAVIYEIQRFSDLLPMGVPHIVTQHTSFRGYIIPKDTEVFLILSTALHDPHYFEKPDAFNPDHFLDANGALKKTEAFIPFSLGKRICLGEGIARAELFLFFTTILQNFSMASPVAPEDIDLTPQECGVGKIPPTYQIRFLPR
The data set can be described thus: Inhibition of human CYP2B6 assessed as remaining activity at 50 uM using bupropion.HCl as substrate preincubated for 3 mins followed by substrate addition and measured upto 15 mins by LC-MS/MS analysis. The class given is ADME. The conditions noted are these: buffer, probe bupropion.HCl, time < 18 min, read-out: Activity.

The next data set deals with CYP2C19 (Homo sapiens, UniProt P33261). The data set can be described thus: Inhibition of human CYP2C19 assessed as remaining activity at 50 uM using omeprazole as substrate preincubated for 3 mins followed by substrate addition and measured upto 15 mins by LC-MS/MS analysis. The conditions noted are these: probe omeprazole, time < 18 min, read-out: Activity. It counts as ADME.
Chain of CYP2C19 (P33261 whole entry): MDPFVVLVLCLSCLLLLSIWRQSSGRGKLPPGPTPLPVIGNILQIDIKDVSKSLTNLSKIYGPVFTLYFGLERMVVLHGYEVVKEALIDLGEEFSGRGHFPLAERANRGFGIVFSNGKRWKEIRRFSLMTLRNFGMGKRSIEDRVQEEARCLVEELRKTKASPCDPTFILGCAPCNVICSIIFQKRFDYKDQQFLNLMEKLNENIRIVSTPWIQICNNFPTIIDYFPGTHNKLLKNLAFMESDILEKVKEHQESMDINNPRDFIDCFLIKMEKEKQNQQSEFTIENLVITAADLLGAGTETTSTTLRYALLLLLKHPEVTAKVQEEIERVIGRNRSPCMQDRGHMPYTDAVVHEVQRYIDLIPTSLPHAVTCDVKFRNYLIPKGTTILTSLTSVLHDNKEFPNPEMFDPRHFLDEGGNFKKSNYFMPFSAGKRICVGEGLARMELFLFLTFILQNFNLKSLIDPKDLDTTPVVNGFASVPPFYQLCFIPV

For data set [9], the target named is T2, CYP3A4. The data set can be described thus: Inhibition of CYP3A4 (unknown origin) at 50 uM incubated for 15 mins by LC-MS/MS analysis. The class given is ADME.
The target in data set [10] is T1, Cytochrome P450 3A4. The data set can be described thus: Inhibition of CYP3A4 (unknown origin) at 10 to 50 uM by LC-MS/MS analysis. As to conditions: TDE = time-dependent effect, dose lower 10 µM, time lower 5 min, dose upper 50 µM, time upper 15 min; call rule not given here. It counts as ADME.
In data set [11] the target is T2, CYP3A4. The data set can be described thus: Inhibition of CYP3A4 (unknown origin) assessed as remaining activity at 50 uM measured immediately (reference value: 100 %). It counts as ADME. The conditions noted are these: read-out: Activity.
Data set [12] deals with T2, CYP3A4. The data set can be described thus: Inhibition of CYP3A4 (unknown origin) assessed as remaining activity at 50 uM measured 15 mins before dialysis (reference value: 87.2 +/- 2.3 %). The class given is ADME. As to conditions: read-out: Activity.
For data set [13], the target named is T2, CYP3A4. The data set can be described thus: Inhibition of CYP3A4 (unknown origin) assessed as remaining activity at 50 uM measured 15 mins after dialysis (reference value: 53.8 +/- 2.9 %). The class given is ADME. The conditions noted are these: read-out: Activity.
Data set [14] concerns the target T1, Cytochrome P450 3A4. The data set can be described thus: Inhibition of CYP3A4 (unknown origin) incubated for 5 to 15 mins by LC-MS/MS analysis. The class given is ADME. As to conditions: at 10 to 50 µM, dose lower 10 µM, time lower 5 min, dose upper 50 µM, time upper 15 min.
The next data set addresses T4, CYP1A2 (Homo sapiens, UniProt P05177).
T4 sequence (P05177 whole entry): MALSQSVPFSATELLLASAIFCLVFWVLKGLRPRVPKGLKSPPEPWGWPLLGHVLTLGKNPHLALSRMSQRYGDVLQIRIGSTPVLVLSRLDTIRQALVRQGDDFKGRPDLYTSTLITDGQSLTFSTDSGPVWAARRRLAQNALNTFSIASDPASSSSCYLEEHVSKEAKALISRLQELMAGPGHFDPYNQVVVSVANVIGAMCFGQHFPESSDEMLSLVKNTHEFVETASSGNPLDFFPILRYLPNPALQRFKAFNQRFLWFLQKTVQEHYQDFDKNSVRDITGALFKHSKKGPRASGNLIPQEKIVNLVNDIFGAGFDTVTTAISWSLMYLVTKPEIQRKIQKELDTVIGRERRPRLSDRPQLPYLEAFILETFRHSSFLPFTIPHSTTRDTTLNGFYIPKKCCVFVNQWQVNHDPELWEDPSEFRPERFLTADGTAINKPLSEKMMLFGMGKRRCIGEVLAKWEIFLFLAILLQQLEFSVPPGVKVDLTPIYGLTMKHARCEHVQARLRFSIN
The data set can be described thus: Inhibition of human CYP1A2 assessed as remaining activity at 50 uM using phenacetin as substrate preincubated for 3 mins followed by substrate addition and measured upto 15 mins by LC-MS/MS analysis (reference value: 85.4 +/- 3.42 %). The class given is ADME. As to conditions: probe phenacetin, time < 18 min, read-out: Activity.

Data set [15] deals with T2, CYP3A4. The data set can be described thus: Inhibition of human CYP3A4 assessed as remaining activity at 50 uM using testosterone as substrate preincubated for 3 mins followed by substrate addition and measured upto 15 mins by LC-MS/MS analysis (reference value: 85.4 +/- 3.42 %). It counts as ADME. As to conditions: probe testosterone, time < 18 min, read-out: Activity.

In another data set the target is T5, CYP2A6 (Homo sapiens, UniProt P11509).
T5 sequence (P11509 whole entry): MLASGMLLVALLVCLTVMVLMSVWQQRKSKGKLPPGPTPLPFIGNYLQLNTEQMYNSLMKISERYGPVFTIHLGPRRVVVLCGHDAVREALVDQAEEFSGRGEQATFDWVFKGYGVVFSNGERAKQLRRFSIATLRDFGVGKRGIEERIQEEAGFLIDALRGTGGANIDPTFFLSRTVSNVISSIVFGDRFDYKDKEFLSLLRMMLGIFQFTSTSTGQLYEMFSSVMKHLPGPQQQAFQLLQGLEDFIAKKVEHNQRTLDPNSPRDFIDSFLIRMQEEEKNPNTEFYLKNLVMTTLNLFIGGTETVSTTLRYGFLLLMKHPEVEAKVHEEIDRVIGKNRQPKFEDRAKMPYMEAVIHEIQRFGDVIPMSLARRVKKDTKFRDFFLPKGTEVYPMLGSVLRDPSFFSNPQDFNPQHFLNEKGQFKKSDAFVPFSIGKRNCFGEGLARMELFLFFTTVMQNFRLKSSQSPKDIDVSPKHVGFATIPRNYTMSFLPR
The data set can be described thus: Inhibition of human CYP2A6 assessed as remaining activity at 50 uM using coumarin as substrate preincubated for 3 mins followed by substrate addition and measured upto 15 mins by LC-MS/MS analysis. The class given is ADME. As to conditions: probe coumarin, time < 18 min, read-out: Activity.

The next data set deals with CYP2D6 (Homo sapiens, UniProt P10635). The data set can be described thus: Inhibition of human CYP2D6 assessed as remaining activity at 50 uM using dextromethorphan as substrate preincubated for 3 mins followed by substrate addition and measured upto 15 mins by LC-MS/MS analysis. It counts as ADME. The conditions noted are these: probe dextromethorphan, time < 18 min, read-out: Activity.
Chain of CYP2D6 (P10635 whole entry): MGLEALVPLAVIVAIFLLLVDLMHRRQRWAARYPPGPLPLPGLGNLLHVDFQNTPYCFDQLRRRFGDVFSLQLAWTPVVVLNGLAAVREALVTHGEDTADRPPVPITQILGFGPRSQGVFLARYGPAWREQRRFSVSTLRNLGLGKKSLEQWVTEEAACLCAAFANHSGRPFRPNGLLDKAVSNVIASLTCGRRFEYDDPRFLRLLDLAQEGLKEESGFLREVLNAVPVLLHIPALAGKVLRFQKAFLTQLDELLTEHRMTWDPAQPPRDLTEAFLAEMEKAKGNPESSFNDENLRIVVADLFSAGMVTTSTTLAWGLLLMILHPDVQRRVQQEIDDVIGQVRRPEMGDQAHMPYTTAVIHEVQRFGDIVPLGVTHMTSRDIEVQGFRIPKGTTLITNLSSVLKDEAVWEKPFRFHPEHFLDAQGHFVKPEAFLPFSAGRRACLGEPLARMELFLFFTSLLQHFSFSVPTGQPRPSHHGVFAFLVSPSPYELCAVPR

Data set [16] deals with Cytochrome P450 3A4 (Homo sapiens, UniProt P08684, C239S). The data set can be described thus: Inhibition of CYP3A4 C239S mutant (unknown origin) expressed in CHO cells using midazolam as substrate incubated for 6 hrs by LC-MS/MS analysis. It counts as ADME, cell-based.
Chain of Cytochrome P450 3A4 (Homo sapiens, UniProt P08684, C239S) (P08684 2-503 C239S limits assumed): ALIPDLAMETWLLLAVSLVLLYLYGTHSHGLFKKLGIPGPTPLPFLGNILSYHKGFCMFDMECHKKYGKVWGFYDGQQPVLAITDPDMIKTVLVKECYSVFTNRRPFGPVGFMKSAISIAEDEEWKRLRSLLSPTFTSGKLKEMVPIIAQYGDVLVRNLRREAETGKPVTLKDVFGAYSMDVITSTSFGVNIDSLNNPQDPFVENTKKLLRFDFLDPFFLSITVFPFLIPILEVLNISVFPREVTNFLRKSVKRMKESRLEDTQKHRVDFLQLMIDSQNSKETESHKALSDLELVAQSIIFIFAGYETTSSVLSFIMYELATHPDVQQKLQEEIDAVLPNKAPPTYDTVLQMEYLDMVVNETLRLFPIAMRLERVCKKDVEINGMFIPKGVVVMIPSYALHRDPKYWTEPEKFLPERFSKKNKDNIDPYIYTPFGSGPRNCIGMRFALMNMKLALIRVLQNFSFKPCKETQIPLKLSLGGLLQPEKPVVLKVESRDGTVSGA
Data set [17] addresses T2, CYP3A4. The data set can be described thus: Inhibition of CYP3A4 (unknown origin) assessed as residual activity at 50 uM incubated for 5 to 15 mins in presence of ketoconazole. It counts as ADME. The conditions noted are these: with ketoconazole, time 5-15 min, read-out: Activity.
The next data set addresses CYP2C9 (Homo sapiens, UniProt P11712). The data set can be described thus: Inhibition of human CYP2C9 assessed as remaining activity at 50 uM using diclofenac sodium as substrate preincubated for 3 mins followed by substrate addition and measured upto 15 mins by LC-MS/MS analysis. The class given is ADME. The conditions noted are these: probe diclofenac sodium, time < 18 min, read-out: Activity.

For data set [18], the target named is T2, CYP3A4. The data set can be described thus: Inhibition of CYP3A4 (unknown origin) assessed as remaining activity at 50 uM incubated for 15 mins (reference value: 85 +/- 3.4%). The class given is ADME. The conditions noted are these: read-out: Activity.
Data set [19] deals with T1, Cytochrome P450 3A4. The data set can be described thus: Inhibition of CYP3A4 (unknown origin) at 50 uM incubated for 5 to 15 mins in absence of NADPH by LC-MS/MS analysis. It counts as ADME. As to conditions: time 5-15 min.
Data set [20] has as its target T2, CYP3A4. The data set can be described thus: Inhibition of CYP3A4 (unknown origin) assessed as remaining activity at 50 uM incubated for 15 mins in presence of 2 mM NAC. The class given is ADME. As to conditions: read-out: Activity.

Chain of CYP2C9 (P11712 whole entry): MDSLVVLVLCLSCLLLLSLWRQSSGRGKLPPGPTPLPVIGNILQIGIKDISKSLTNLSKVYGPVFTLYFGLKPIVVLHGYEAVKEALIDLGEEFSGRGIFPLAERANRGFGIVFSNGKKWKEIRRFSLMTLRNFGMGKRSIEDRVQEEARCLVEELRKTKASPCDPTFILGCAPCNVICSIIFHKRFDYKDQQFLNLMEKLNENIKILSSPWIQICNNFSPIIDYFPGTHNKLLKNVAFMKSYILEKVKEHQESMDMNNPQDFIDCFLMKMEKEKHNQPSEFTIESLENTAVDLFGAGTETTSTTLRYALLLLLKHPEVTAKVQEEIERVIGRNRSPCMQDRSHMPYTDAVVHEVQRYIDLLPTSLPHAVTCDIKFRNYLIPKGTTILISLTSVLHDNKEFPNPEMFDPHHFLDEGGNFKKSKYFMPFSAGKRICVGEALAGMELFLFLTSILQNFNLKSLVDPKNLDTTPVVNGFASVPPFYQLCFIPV
Chain of CYP3A5 (P20815 whole entry): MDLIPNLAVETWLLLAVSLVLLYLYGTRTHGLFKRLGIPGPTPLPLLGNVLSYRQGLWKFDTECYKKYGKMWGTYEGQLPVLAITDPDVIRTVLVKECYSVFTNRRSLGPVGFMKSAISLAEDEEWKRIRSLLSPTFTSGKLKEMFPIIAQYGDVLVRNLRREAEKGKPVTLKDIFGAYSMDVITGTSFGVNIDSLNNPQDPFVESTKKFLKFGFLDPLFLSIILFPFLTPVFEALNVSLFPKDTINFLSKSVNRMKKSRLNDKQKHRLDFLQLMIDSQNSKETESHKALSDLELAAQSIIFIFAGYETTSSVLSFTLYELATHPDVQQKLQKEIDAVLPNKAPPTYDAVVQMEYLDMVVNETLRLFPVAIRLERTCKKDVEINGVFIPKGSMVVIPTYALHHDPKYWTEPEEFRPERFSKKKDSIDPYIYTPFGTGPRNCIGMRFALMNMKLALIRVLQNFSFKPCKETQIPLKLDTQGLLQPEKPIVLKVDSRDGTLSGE

On to `COc1cc2c[n+](C)c3c4cc5c(cc4ccc3c2cc1OC)OCO5.[Cl-]` [NITIDINE CHLORIDE], for which the TDI result on Cytochrome P450 3A4 [1] is reported as “Active”. Besides, the Drug metabolism entry in data set [2], in data set [3] and in data set [4] was “Metabolite_Notdetected” throughout.

For the compound `COc1ccc2c(c1OC)CN(C)c1c-2ccc2cc3c(cc12)OCO3` [DIHYDROCHELERYTHRINE], at Cytochrome P450 3A4 [5], the TDI entry is “Not Active”.

In the case of `COc1ccc2c(c[n+](C)c3c4cc5c(cc4ccc23)OCO5)c1OC.[Cl-]` [CHELERYTHRINE CHLORIDE], the activity at 0.25 h, 50 µM is over 50% on CYP3A5; 85.9% at CYP3A4 [8]; over 50% at CYP2E1; over 50% on CYP2B6; over 50% at CYP2C19; 43.8% at CYP3A4 [12]. Besides, the activity at 0.25 h, 50 µM was 25.1% on CYP3A4 [13]; over 50% on CYP1A2; 26.3% on CYP3A4 [15]; over 50% on CYP2A6; over 50% at CYP2D6; over 50% at CYP2C9. Also, the activity at 0.25 h, 50 µM on CYP3A4 [18] was 26%; at CYP3A4 [20], 49.9%. Moreover, the “inhibition (INH)” value is reported as “Active” against Cytochrome P450 3A4 [6]; “Active” at Cytochrome P450 3A4 [7]; “Tde” at Cytochrome P450 3A4 [10]; “Dose-Dependent Effect” on Cytochrome P450 3A4 [14]; “Not Active” at Cytochrome P450 3A4 [16]; “Active” on Cytochrome P450 3A4 [19]. On CYP3A4 [9], the inhibition (usually the share of the control response that was lost under treatment) at 0.25 h, 50 µM is 75%. In addition, the values for the Drug metabolism result in data set [2], in [3] and in data set [4] were “Metabolite_Detected”, “Metabolite_Notdetected” and “Metabolite_Notdetected”, respectively. Also, the activity at 0 min, 50 µM on CYP3A4 [11] was determined as 70.7%. At CYP3A4 [17], the activity at 50 µM was determined as 50%.
